Laboratory results published in US12336981B2, “Compounds and compositions for the inhibition of NAMPT” (Valo Health, Inc., priority 2010, dated 2025).
Where two headings read alike, the source gives them in different places.

What was measured:
NAMPT = target: T1, NAMPT (Homo sapiens, UniProt P43490); assay: Biochemical inhibition assay: NAMPT enzymatic reaction, NMN quantified by mass spectrometry; settings: read-out: Biochem IC50
T1 construct: His tag; host or cells: E. coli
Summary of the method: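 Inhibition of E. coli-expressed His-tagged human NAMPT, measured as NMN formation by mass spectrometry after a 30 min room-temperature reaction containing 1 μM NAM, 100 μM PRPP and 2.5 mM ATP.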

A2780 cells = assay: In-vitro cell proliferation assay (SRB), A2780 cells; format: cell-based; settings: Homo sapiens, A2780, 72 h, A2780 cells, 72 hours, read-out: A2780 IC50
Summary of the method: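 Viable cells measured by SRB staining after 6% TCA fixation, absorbance 570 nm. Media-only background subtracted; % inhibition derived at two compound concentrations.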

T1 sequence (P43490 whole entry): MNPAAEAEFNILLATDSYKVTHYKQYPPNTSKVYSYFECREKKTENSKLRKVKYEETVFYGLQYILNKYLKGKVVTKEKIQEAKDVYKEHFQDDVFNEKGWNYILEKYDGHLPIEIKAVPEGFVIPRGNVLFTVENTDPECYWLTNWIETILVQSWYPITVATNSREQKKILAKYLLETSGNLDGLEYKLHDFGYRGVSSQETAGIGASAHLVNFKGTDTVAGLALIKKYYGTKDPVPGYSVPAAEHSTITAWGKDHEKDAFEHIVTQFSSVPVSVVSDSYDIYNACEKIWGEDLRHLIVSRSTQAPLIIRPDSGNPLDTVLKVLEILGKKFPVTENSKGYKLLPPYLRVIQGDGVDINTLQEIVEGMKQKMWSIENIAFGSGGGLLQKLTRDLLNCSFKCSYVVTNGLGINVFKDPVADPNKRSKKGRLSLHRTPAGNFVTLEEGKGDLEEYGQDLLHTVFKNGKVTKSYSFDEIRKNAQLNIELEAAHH

Row | SMILES | IC50 (NAMPT; NAMPT enzymatic reaction) | IC50 (A2780 cells; SRB) | IC50 (NAMPT; NAMPT enzymatic assay) | IC50 (A2780 cells; SRB assay)
1 | COc1cc(F)c(F)cc1S(=O)(=O)c1ccc(CNC(=O)c2cnc3nccn3c2)cc1 | 11.9 nM | 24.9 nM |  | 
2 | COc1ccc(S(=O)(=O)c2ccc(CNC(=O)c3cc4ccncc4o3)cc2)cc1 [N-({4-[(4-methoxybenzene)sulfonyl]phenyl}methyl)furo[2,3-c]pyridine-2-carboxamide] | 5.5 nM | 6 nM |  | 
3 | O=C(NCc1ccc(S(=O)(=O)c2cccc(N3CCOCC3)c2)cc1)c1ccc2nccn2c1 |  | 3.3 nM | 7.7 nM | 
4 | O=C(NCc1ccc(S(=O)(=O)c2cccc(N3CCCCC3)c2)cc1)c1cc2cc(O)ccc2[nH]1 | 100 to 1000 nM | 1000 to 10000 nM |  | 
5 | O=C(NCc1ccc(S(=O)(=O)c2cccc3ccccc23)cc1)c1cc2ccncc2o1 [N-{[4-(naphthalene-1-sulfonyl)phenyl]methyl}furo[2,3-c]pyridine-2-carboxamide] |  | 3.1 nM | 4.9 nM | 
6 | O=C(NCc1ccc(S(=O)(=O)c2cccc(-c3ccccc3)c2)cc1)c1cc2ccncc2s1 | 4.5 nM | 10 nM |  | 
7 | O=C(NCc1ccc(S(=O)(=O)c2ccc(C(F)(F)F)cn2)cc1)c1cc2ccncc2s1 [N-({4-[5-(trifluoromethyl)pyridine-2-sulfonyl]phenyl}methyl)thieno[2,3-c]pyridine-2-carboxamide] |  | 100 to 1000 nM | 23.5 nM | 
8 | O=C(NCc1ccc(S(=O)(=O)c2ccc(-c3ccccc3)cc2)cc1)c1cc2cnccc2[nH]1 [N-({4-[(4-phenylbenzene)sulfonyl]phenyl}methyl)-1H-pyrrolo[3,2-c]pyridine-2-carboxamide] | 31 nM | 13.3 nM |  | 
9 | CC(C)(C)c1cccc(S(=O)(=O)c2ccc(CNC(=O)c3cnc4nccn4c3)cc2)c1 | < 0.65 nM | 1.2 nM |  | 
10 | O=C(NCc1ccc(S(=O)(=O)c2cccc(-c3ccc(F)c(F)c3)n2)cc1)c1cnc2[nH]ncc2c1 [N-({4-[6-(3,4-difluorophenyl)pyridine-2-sulfonyl]phenyl}methyl)-1H-pyrazolo[3,4-b]pyridine-5-carboxamide] |  | 41 nM | 17.8 nM | 
11 | O=C(NCc1ccc(S(=O)(=O)c2cccc(O)c2)cc1)c1ccc2nccn2c1 | 5 nM | 7 nM |  | 
12 | COc1cccc(S(=O)(=O)c2ccc(CNC(=O)c3ccc4nccn4c3)cc2)n1 [N-{[4-(6-methoxypyridine-2-sulfonyl)phenyl]methyl}imidazo[1,2-a]pyridine-6-carboxamide] |  | 1.3 nM | 5.2 nM | 
13 | Cc1cccc(S(=O)(=O)c2ccc(CNC(=O)c3cnc4[nH]ncc4c3)cc2)c1F | 19.7 nM | 23.9 nM |  | 
14 | COc1cc(C)cc(S(=O)(=O)c2ccc(CNC(=O)c3ccc4nccn4c3)cc2)c1 | 5.3 nM | 1.6 nM |  | 
15 | CCOc1cc(F)ccc1S(=O)(=O)c1ccc(CNC(=O)c2cc3cnccc3[nH]2)cc1 [N-({4-[(2-ethoxy-4-fluorobenzene)sulfonyl]phenyl}methyl)-1H-pyrrolo[3,2-c]pyridine-2-carboxamide] | 3.4 nM | 1.8 nM |  | 
16 | CCOc1ccc(S(=O)(=O)c2ccc(CNC(=O)c3cc4ccncc4s3)cc2)cc1 | 2.1 nM | 4 nM |  | 
17 | COc1ccc(C(C)=O)cc1S(=O)(=O)c1ccc(CNC(=O)c2cc3ccncc3o2)cc1 | 7.2 nM | 3.8 nM |  | 
18 | O=C(NCc1ccc(S(=O)(=O)c2ccccc2)cc1)c1nc2ccncc2s1 [N-{[4-(benzenesulfonyl)phenyl]methyl}-[1,3]thiazolo[5,4-c]pyridine-2-carboxamide] |  | > 10000 nM | 220 nM | 
19 | CCCOc1ccc(S(=O)(=O)c2ccc(CNC(=O)c3cc4cnccc4[nH]3)cc2)c(C)c1 | 30.5 nM | 22.1 nM |  | 
20 | COc1ccccc1NS(=O)(=O)c1ccc(CNC(=O)c2cc3cnccc3[nH]2)cc1 [N-({4-[(2-methoxyphenyl)sulfamoyl]phenyl}methyl)-1H-pyrrolo[3,2-c]pyridine-2-carboxamide] | 89 nM |  |  | 2150 nM
21 | O=C(NCc1ccc(S(=O)(=O)c2ccc(OC(F)(F)F)c(F)c2)cc1)c1cnc2[nH]ncc2c1 [N-[(4-{[3-fluoro-4-(trifluoromethoxy)benzene]sulfonyl}phenyl)methyl]-1H-pyrazolo[3,4-b]pyridine-5-carboxamide] |  | 13.7 nM | 17.4 nM | 
22 | O=C(NCc1ccc(S(=O)(=O)c2cccc(N3CCCC3)c2)cc1)c1cnc2nccn2c1 |  | 4.1 nM | 2.5 nM | 
23 | CC(C)NC(=O)c1cccc(S(=O)(=O)c2ccc(CNC(=O)c3ccc4nccn4c3)cc2)c1 |  | 50.4 nM | 22.2 nM | 
24 | COc1c(F)cccc1S(=O)(=O)c1ccc(CNC(=O)c2cc3cnccc3[nH]2)cc1 | 32.4 nM | 6.3 nM |  | 
25 | CCCOc1cccc(S(=O)(=O)c2ccc(CNC(=O)c3cc4ccncc4s3)cc2)c1 | 4 nM | 12.2 nM |  | 

Row | SMILES | IC50 (NAMPT; NAMPT enzymatic reaction) | IC50 (A2780 cells; SRB) | IC50 (NAMPT; NAMPT enzymatic assay) | IC50 (A2780 cells; SRB assay)
26 | Cn1ncc2c(S(=O)(=O)c3ccc(CNC(=O)c4cc5cc(O)ccc5[nH]4)cc3)cccc21 [5-hydroxy-N-{[4-(1-methyl-1H-indazole-4-sulfonyl)phenyl]methyl}-1H-indole-2-carboxamide] | 100 to 1000 nM | > 1000 nM |  | 
27 | O=C(NCc1ccc(S(=O)(=O)c2cc(Cl)ccc2OCC(F)F)cc1)c1ccc2nccn2c1 |  | 0.3 nM | 2 nM | 
28 | O=C(NCc1ccc(S(=O)(=O)c2ccc(C(F)(F)F)cc2F)cc1)c1ccc2nccn2c1 |  | 15.7 nM | 15.6 nM | 
29 | O=C(NCc1ccc(S(=O)(=O)c2csc(-c3cccc(F)c3)n2)cc1)c1ccc2nccn2c1 [N-({4-[2-(3-fluorophenyl)-1,3-thiazole-4-sulfonyl]phenyl}methyl)imidazo[1,2-a]pyridine-6-carboxamide] |  | 12.8 nM | 22.9 nM | 
30 | O=C(NCc1ccc(S(=O)(=O)N2CCCCC2)cc1)c1cccnc1 [N-{[4-(piperidine-1-sulfonyl)phenyl]methyl}pyridine-3-carboxamide] | 39 nM |  |  | 640 nM
31 | O=C(NCc1ccc(S(=O)(=O)c2cccc(C(F)(F)F)c2Cl)cc1)c1cc2ccncc2o1 |  | 27.9 nM | 18.4 nM | 
32 | Cc1cccc(S(=O)(=O)c2ccc(CNC(=O)c3cc4ccncc4o3)cc2)c1F [N-({4-[(2-fluoro-3-methylbenzene)sulfonyl]phenyl}methyl)furo[2,3-c]pyridine-2-carboxamide] | 6.3 nM | 7.9 nM |  | 
33 | CS(=O)(=O)c1cccc(S(=O)(=O)c2ccc(CNC(=O)c3ccc4nccn4c3)cc2)c1 | 25.6 nM | 16 nM |  | 
34 | O=C(NCc1ccc(S(=O)(=O)c2ccccc2)cc1)c1cc(-c2ccncc2)n[nH]1 [N-{[4-(benzenesulfonyl)phenyl]methyl}-3-(pyridin-4-yl)-1H-pyrazole-5-carboxamide] | 3180 nM |  |  | 21600 nM
35 | O=C(NCc1ccc(S(=O)(=O)c2cnn(-c3cccc(Cl)c3)c2)cc1)c1cc2cnccc2[nH]1 [N-({4-[1-(3-chlorophenyl)-1H-pyrazole-4-sulfonyl]phenyl}methyl)-1H-pyrrolo[3,2-c]pyridine-2-carboxamide] |  | 13.1 nM | 16.9 nM | 
36 | O=C(NCc1ccc(S(=O)(=O)c2cccc(N3CCOCC3)c2)cc1)c1ccc2ncsc2c1 [N-[(4-{[3-(morpholin-4-yl)benzene]sulfonyl}phenyl)methyl]-1,3-benzothiazole-6-carboxamide] |  | 1000 to 10000 nM | 40.1 nM | 
37 | Cc1cc(Cl)ccc1S(=O)(=O)c1ccc(CNC(=O)c2cc3ccncc3o2)cc1 [N-({4-[(4-chloro-2-methylbenzene)sulfonyl]phenyl}methyl)furo[2,3-c]pyridine-2-carboxamide] | 24.9 nM | 64.7 nM |  | 
38 | COc1ccccc1S(=O)(=O)c1ccc(CNC(=O)c2cnc3[nH]ncc3c2)cc1 [N-({4-[(2-methoxybenzene)sulfonyl]phenyl}methyl)-1H-pyrazolo[3,4-b]pyridine-5-carboxamide] | 68.3 nM | 61.8 nM |  | 
39 | CC(C)Oc1cc(F)ccc1S(=O)(=O)c1ccc(CNC(=O)c2cc3ccncc3s2)cc1 |  | 1.6 nM | 5 nM | 
40 | COc1ccc(S(=O)(=O)c2ccc(CNC(=O)c3cnc4nccn4c3)cc2)cc1 | 2.7 nM | 20.7 nM |  | 
41 | CN1CCN(c2ccc(S(=O)(=O)c3ccc(CNC(=O)c4cnc5[nH]ncc5c4)cc3)cc2)CC1 |  | 1.3 nM | 4 nM | 
42 | CCCCc1ccc(S(=O)(=O)c2ccc(CNC(=O)c3cnc4[nH]ncc4c3)cc2)cc1 [N-({4-[(4-butylbenzene)sulfonyl]phenyl}methyl)-1H-pyrazolo[3,4-b]pyridine-5-carboxamide] | 71.2 nM | 68.4 nM |  | 
43 | COc1ccc(Cl)c(S(=O)(=O)c2ccc(CNC(=O)c3cc4ccncc4o3)cc2)c1 | 2.6 nM | 20.6 nM |  | 
44 | Cc1ccc(Cl)cc1S(=O)(=O)c1ccc(CNC(=O)c2cnc3nccn3c2)cc1 | 3.1 nM | 4.3 nM |  | 
45 | O=C(NCc1ccc(S(=O)(=O)c2cccc(-n3cccn3)c2)cc1)c1cc2ccncc2o1 |  | 9.1 nM | 7.5 nM | 
46 | O=C(NCc1ccc(S(=O)(=O)c2cc(CO)ccc2Cl)cc1)c1cc2cnccc2[nH]1 |  | 26.2 nM | 8.3 nM | 
47 | Cc1ccc(F)cc1S(=O)(=O)c1ccc(CNC(=O)c2cc3ccncc3s2)cc1 [N-({4-[(5-fluoro-2-methylbenzene)sulfonyl]phenyl}methyl)thieno[2,3-c]pyridine-2-carboxamide] | 3 nM |  |  | 9.4 nM
48 | O=C(NCc1ccc(S(=O)(=O)c2cccc3c2OCO3)cc1)c1cc2cnccc2[nH]1 [N-{[4-(2H-1,3-benzodioxole-4-sulfonyl)phenyl]methyl}-1H-pyrrolo[3,2-c]pyridine-2-carboxamide] |  | 11.8 nM | 20.5 nM | 
49 | Cc1ccccc1S(=O)(=O)c1ccc(CNC(=O)c2ccc3nccn3c2)cc1 [N-({4-[(2-methylbenzene)sulfonyl]phenyl}methyl)imidazo[1,2-a]pyridine-6-carboxamide] | 66.9 nM | 91.2 nM |  | 
